The text below walks through data of patent publication US20230322846A9, “NEUROACTIVE STEROIDS AND THEIR METHODS OF USE” (SAGE THERAPEUTICS, INC., priority 2018, published 2023).

Some results are limits rather than exact numbers.

By IC50 is commonly meant the concentration needed to halve the response being measured.

This experiment has as its target [35S]-TBPS binding, rat brain cortical membranes. In words: Steroid inhibition of [35S]-TBPS binding. Conditions: 3 nM [35S]-TBPS, in the presence of 5 mM GABA. Put shortly: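 Rat cortical P2 membranes incubated 90 min at room temperature with 3 nM [35S]-TBPS, […] and test compound (0.5% DMSO final) in NaCl/Na–K phosphate pH 7.4; nonspecific binding with […]. Filter-bound radioactivity counted; IC50 and Imax from nonlinear fits, mean ± SEM.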

Consider `COC[C@@]1(O)CC[C@H]2[C@H](CC[C@@H]3[C@@H]2CC[C@]2(C)[C@@H]([C@H](C)NC(=O)c4ccc(F)cc4)CC[C@@H]32)C1` [Example 114], for which the IC50 was in the range of 1 to 10 µM.
For the compound `COC[C@@]1(O)CC[C@H]2[C@H](CC[C@@H]3[C@@H]2CC[C@]2(C)[C@@H]([C@@H](C)NC(=O)c4ccc(F)cc4)CC[C@@H]32)C1` [Example 113], the IC50 lay within 0.1 to 1 µM.
For `COC[C@@]1(O)CC[C@H]2[C@H](CC[C@@H]3[C@@H]2CC[C@]2(C)[C@@H](CCn4nccn4)CC[C@@H]32)C1` [Example 49, (3R,5R,8R,9R,10S,13R,14S,17R)-17-(2-(2H-1,2,3-triazol-2-yl)ethyl)-3-(methoxymethyl)-13-methylhexadecahydro-1H-cyclopenta[a]phenanthren-3-ol], the IC50 is less than 0.1 µM.
The value for `CCC[C@@]1(O)CC[C@H]2[C@@H](CC[C@@H]3[C@@H]2CC[C@]2(C)[C@@H]([C@@H](C)Cn4nnc(C)n4)CC[C@@H]32)C1` [Example 329, (3R,5S,8R,9R,10S,13S,14S,17R)-13-methyl-17-((R)-1-(5-methyl-2H-tetrazol-2-yl)propan-2-yl)-3-propylhexadecahydro-1H-cyclopenta[a]phenanthren-3-ol] was no less than 10 µM.
Consider `CCOC[C@@]1(O)CC[C@H]2[C@H](CC[C@@H]3[C@@H]2CC[C@]2(C)[C@@H]([C@H](Nc4ccc(C#N)cc4C)C(F)(F)F)CC[C@@H]32)C1` [Example 487, 4-(((S)-1-((3R,5R,8R,9R,10S,13S,14S,17S)-3-(ethoxymethyl)-3-hydroxy-13-methylhexadecahydro-1H-cyclopenta[a]phenanthren-17-yl)-2,2,2-trifluoroethyl)amino)-3-methylbenzonitrile], for which the IC50 lay within 0.1 to 1 µM.
Turning to `C[C@@H](Cc1ccc(C(F)(F)F)nc1)[C@H]1CC[C@H]2[C@@H]3CC[C@@H]4C[C@](C)(O)CC[C@]4(C)[C@H]3CC[C@]12C` [Example 427], the IC50 is less than 0.1 µM.
With `C[C@H](N[C@@H](C)[C@H]1CC[C@H]2[C@@H]3CC[C@@H]4C[C@](C)(O)CC[C@@H]4[C@H]3CC[C@]12C)c1ccccc1` [Example 210], the IC50 fell in the range of 1 to 10 µM.
Consider `CCOC[C@@]1(O)CC[C@H]2[C@H](CC[C@@H]3[C@@H]2CC[C@]2(C)[C@@H]([C@H](C)Cc4cccc(C#N)n4)CC[C@@H]32)C1` [Example 412], for which the IC50 is 0.1 to 1 µM.
As to `CCOC[C@@]1(O)CC[C@H]2[C@H](CC[C@@H]3[C@@H]2CC[C@]2(C)[C@@H]([C@H](C)Cn4nccn4)CC[C@@H]32)C1` [Example 265, (3R,5R,8R,9R,10S,13S,14S,17R)-17-((S)-1-(2H-1,2,3-triazol-2-yl)propan-2-yl)-3-(ethoxymethyl)-13-methylhexadecahydro-1H-cyclopenta[a]phenanthren-3-ol], the IC50 was in the range of 0.1 to 1 µM.
With `CC[C@@]1(O)CC[C@@]2(C)[C@@H](CC[C@@H]3[C@@H]2CC[C@]2(C)[C@@H]([C@@H](C)Cn4nnc(C)n4)CC[C@@H]32)C1` [Example 359, (3R,5S,8R,9S,10S,13S,14S,17R)-3-ethyl-10,13-dimethyl-17-((R)-1-(5-methyl-2H-tetrazol-2-yl)propan-2-yl)hexadecahydro-1H-cyclopenta[a]phenanthren-3-ol], the IC50 is no less than 10 µM.
For `C[C@H](NC(=O)c1ccc(C#N)cc1)[C@H]1CC[C@H]2[C@@H]3CC[C@@H]4C[C@](C)(O)CC[C@@H]4[C@H]3CC[C@]12C` [Example 115], the IC50 was in the range of 1 to 10 µM.
As to `C[C@H](Cn1cc(C#N)cn1)[C@H]1CC[C@H]2[C@@H]3CC[C@@H]4C[C@@](O)(C5CC5)CC[C@@H]4[C@H]3CC[C@]12C` [Example 342, 1-((S)-2-((3R,5R,8R,9R,10S,13S,14S,17R)-3-cyclopropyl-3-hydroxy-13-methylhexadecahydro-1H-cyclopenta[a]phenanthren-17-yl)propyl)-1H-pyrazole-4-carbonitrile], the IC50 lay within 0.1 to 1 µM.
As for `CCC[C@@]1(O)CC[C@@]2(C)[C@H](CC[C@@H]3[C@@H]2[C@@H](O)C[C@]2(C)[C@@H]([C@@H](C)Cn4cc(C#N)cn4)CC[C@@H]32)C1` [Example 309, 1-((R)-2-((3R,5R,8S,9S,10S,11S,13S,14S,17R)-3,11-dihydroxy-10,13-dimethyl-3-propylhexadecahydro-1H-cyclopenta[a]phenanthren-17-yl)propyl)-1H-pyrazole-4-carbonitrile], the IC50 is less than 0.1 µM.
`CCOC[C@@]1(O)CC[C@H]2[C@H](CC[C@@H]3[C@@H]2CC[C@]2(C)[C@@H]([C@@H](C)NC(=O)c4ccc(C#N)cc4F)CC[C@@H]32)C1` [Example 133]: the IC50 is less than 0.1 µM.
`C[C@@H](Nc1ccc(C#N)cc1)[C@H]1CC[C@H]2[C@@H]3CC[C@@H]4C[C@](C)(O)CC[C@@H]4[C@H]3CC[C@]12C` [Example 33, 4-(((R)-1-((3R,5R,8R,9R,10S,13S,14S,17S)-3-hydroxy-3,13-dimethylhexadecahydro-1H-cyclopenta[a]phenanthren-17-yl)ethyl)amino)benzonitrile]: the IC50 is less than 0.1 µM.
As for `CCOC[C@@]1(O)CC[C@H]2[C@H](CC[C@@H]3[C@@H]2CC[C@]2(C)[C@@H]([C@@H](C)Cn4ccc(C#N)n4)CC[C@@H]32)C1` [Example 288, 1-((R)-2-((3R,5R,8R,9R,10S,13S,14S,17R)-3-(ethoxymethyl)-3-hydroxy-13-methylhexadecahydro-1H-cyclopenta[a]phenanthren-17-yl)propyl)-1H-pyrazole-3-carbonitrile], the IC50 was less than 0.1 µM.
As for `CCOC[C@@]1(O)CC[C@H]2[C@H](CC[C@@H]3[C@@H]2CC[C@]2(C)[C@@H]([C@@H](C)n4ncc(C#N)c4N)CC[C@@H]32)C1` [Example 160, 5-amino-1-((R)-1-((3R,5R,8R,9R,10S,13S,14S,17S)-3-(ethoxymethyl)-3-hydroxy-13-methylhexadecahydro-1H-cyclopenta[a]phenanthren-17-yl)ethyl)-1H-pyrazole-4-carbonitrile], the IC50 was in the range of 1 to 10 µM.
With `COC[C@@]1(O)CC[C@H]2[C@H](CC[C@@H]3[C@@H]2CC[C@]2(C)[C@@H]([C@@H](C)Cc4cnc(C)cn4)CC[C@@H]32)C1` [Example 422], the IC50 was less than 0.1 µM.
Regarding `CCOC[C@@]1(O)CC[C@H]2[C@H](CC[C@@H]3[C@@H]2CC[C@]2(C)[C@@H]([C@@H](C)N[C@H](C)c4ccccc4)CC[C@@H]32)C1` [Example 206], the IC50 is 0.1 to 1 µM.
Regarding `CCC[C@@]1(O)CC[C@H]2[C@@H](CC[C@@H]3[C@@H]2CC[C@]2(C)[C@@H]([C@H](C)Cn4cc(C#N)cn4)CC[C@@H]32)C1` [Example 350, 1-((S)-2-((3R,5S,8R,9R,10S,13S,14S,17R)-3-hydroxy-13-methyl-3-propylhexadecahydro-1H-cyclopenta[a]phenanthren-17-yl)propyl)-1H-pyrazole-4-carbonitrile], the IC50 was no less than 10 µM.
As for `C[C@H]1CCCC(=O)N1C[C@H]1CC[C@H]2[C@@H]3CC[C@@H]4C[C@](C)(O)CC[C@@H]4[C@H]3CC[C@]12C` [Example 6, (S)-1-(((3R,5R,8R,9R,10S,13S,14S,17S)-3-hydroxy-3,13-dimethylhexadecahydro-1H-cyclopenta[a]phenanthren-17-yl)methyl)-6-methylpiperidin-2-one], the IC50 is 1 to 10 µM.
As to `COC[C@@]1(O)CC[C@H]2[C@H](CC[C@@H]3[C@@H]2CC[C@]2(C)[C@@H]([C@@H](C)Nc4cccc(C#N)c4)CC[C@@H]32)C1` [Example 254], the IC50 was less than 0.1 µM.
Take `COC[C@@]1(O)CC[C@H]2[C@H](CC[C@@H]3[C@@H]2CC[C@]2(C)[C@@H]([C@H](C)Cn4ccc(C#N)n4)CC[C@@H]32)C1` [Example 35, 1-((S)-2-((3R,5R,8R,9R,10S,13S,14S,17R)-3-hydroxy-3-(methoxymethyl)-13-methylhexadecahydro-1H-cyclopenta[a]phenanthren-17-yl)propyl)-1H-pyrazole-3-carbonitrile]: the IC50 is less than 0.1 µM.
The result for `C[C@H](Cn1cc(C#N)cn1)[C@@]1(O)CC[C@H]2[C@@H]3CC[C@@H]4C[C@](C)(O)CC[C@@H]4[C@H]3CC[C@@]21C` [Example 346, 1-((R)-2-((3R,5R,8R,9R,10S,13S,14S,17S)-3,17-dihydroxy-3,13-dimethylhexadecahydro-1H-cyclopenta[a]phenanthren-17-yl)propyl)-1H-pyrazole-4-carbonitrile] reads 1 to 10 µM.
Take `C[C@@H](NC(=O)c1ccccc1F)[C@H]1CC[C@H]2[C@@H]3CC[C@@H]4C[C@](C)(O)CC[C@@H]4[C@H]3CC[C@]12C` [Example 103]: the IC50 was less than 0.1 µM.
Take `CCOC[C@@]1(O)CC[C@H]2[C@H](CC[C@@H]3[C@@H]2CC[C@]2(C)[C@@H]([C@H](CC)Cn4nccc4C#N)CC[C@@H]32)C1` [Example 501, 1-((S)-2-((3R,5R,8R,9R,10S,13S,14S,17R)-3-(ethoxymethyl)-3-hydroxy-13-methylhexadecahydro-1H-cyclopenta[a]phenanthren-17-yl)butyl)-1H-pyrazole-5-carbonitrile]: the IC50 was in the range of 0.1 to 1 µM.
Regarding `COC[C@@]1(O)CC[C@H]2[C@H](CC[C@@H]3[C@@H]2CC[C@]2(C)[C@@H]([C@H](C)n4ncc(C#N)c4N)CC[C@@H]32)C1` [Example 153, 5-amino-1-((S)-1-((3R,5R,8R,9R,10S,13S,14S,17S)-3-hydroxy-3-(methoxymethyl)-13-methylhexadecahydro-1H-cyclopenta[a]phenanthren-17-yl)ethyl)-1H-pyrazole-4-carbonitrile], the IC50 is 1 to 10 µM.
